The subject of one data set is 3xTg-AD mice. Kind of data set: Morris water maze. The conditions noted are these: ~4 months. It is filed as in vivo, mouse. The procedure: Pregnant 3xTg-AD and wild-type (WT) mice were treated with compound P021 in mouse chow, or as control with vehicle feed from gestational day 8 (E8) till their offspring/pups reached PND21, at which point the offspring were separated from their mother and put on normal mouse chow (Fig. 1). There were four study groups of mice, as follows: offspring of WT treated with vehicle diet (WT-Vh, n = 10), offspring of WT treated with […] diet (WT-[…], n = 17), offspring of 3xTg-AD treated with vehicle diet (3xTg-Vh, n = 12), and offspring of 3xTg-AD treated with […] diet (3xTg-[…], n = 18). Elevated plus maze, novel object recognition test, and Morris water maze were carried out consecutively from postnatal day 90 with all of mice. About 50% (4 animals/group) of the female offspring (n = 7-8 animals/group) were sacrificed at 4 months of age and the remaining 50% (3-4 animals/group) at 22 months of age. Left cerebral hemisphere homogenate was used for biochemical analysis and right cerebral hemisphere for immunohistochemical studies. We treated 2- to 3-month-old pregnant 3xTg-AD and WT mothers with compound P021 in mouse chow, or with vehicle feed as control at E8 until their offspring/pups reached PND21, at which point the offspring were separated and put on standard mouse chow (Fig. 1). Treatment was administered as 60 nmol peptide/g formulated diet (Research Diets; New Brunswick, NJ, USA). The vehicle-treated control animals received the same diet but without the peptide. On average, each mouse consumed ~ 2.7 g diet/day. The Morris water maze task was used to evaluate spatial learning and memory of the mice. A total of 57 mice were subjected to the Morris water maze task at about 4 months of age. The test was performed in a circular white pool (with a diameter of 180 cm and a height of 60 cm) filled with nontoxic white dye-tinted water and maintained at room temperature (20 ± 1 °C). The maze was designed with two virtual principal axes, with each line bisecting the maze perpendicular to the other one to divide the maze into four equal quadrants. […]

For data set [1] the following is noted: cited from earlier work. An excerpt: A central objective of the field of dementia research is to inhibit, or to at least effectively modify, the course of AD, but at present, no effective treatment or cure for AD is available. CNTF is a pluripotent neurotrophic factor that has a potent effect on the development and maintenance of the nervous system, inducing neuronal survival and differentiation by stimulating gene expression of sensory, sympathetic, and motor neurons. However, the clinical therapeutic usage of recombinant neurotrophic factors is limited because of the insurmountable hurdles of unfavorable pharmacokinetic ...

For the next data set, the system named is APP. Kind of data set: Western blots of p-APP (Thr668) in hippocampus. As to conditions: 22-month-old 3xTg-AD mice, normalized with GAPDH, n = 4, P021 diet E8-PND21. Format: in vivo, mouse. As for the experimental part:
We treated 2- to 3-month-old pregnant 3xTg-AD and WT mothers with compound P021 in mouse chow, or with vehicle feed as control at E8 until their offspring/pups reached PND21, at which point the offspring were separated and put on standard mouse chow (Fig. 1). Treatment was administered as 60 nmol peptide/g formulated diet (Research Diets; New Brunswick, NJ, USA). The vehicle-treated control animals received the same diet but without the peptide. On average, each mouse consumed ~ 2.7 g diet/day.
The tissue from the left cerebral hemisphere from each mouse stored at− 80 °C was homogenized in a Teflon-glass homogenizer to generate 10% (w/v) homogenate. […] Each homogenate was boiled in 2× Laemmli sample buffer for 5 min, and protein concentration was measured by PierceTM 660-nm protein assay (Thermo Scientific; Rockford, IL, USA).
The samples were subjected to 10% SDS-PAGE and electro-transferred onto Immobilon-P membranes (EMD Millipore; Billerica, MA, USA). […] Densitometric quantification of protein bands in Western blots was analyzed using Multi Gauge version 3.0 software (FUJIFILM North America; Valhalla, NY, USA).

For data set [2], the system named is Ts65Dn trisomic Down syndrome mouse model. As to conditions: Ts65Dn mice, prenatal to early postnatal treatment; cited from earlier work. An excerpt: The prenatal to early postnatal period is highly susceptible to epigenomic dysregulation with implications for health. […] Stress and hormones, such as glucocorticoids, testosterone, and estradiol, mediate the development of the brain during critical prenatal and early postnatal periods.

Consider one substance from publication PMC7450938, “Prenatal to early postnatal neurotrophic treatment prevents Alzheimer-like behavior and pathology in mice” (Alzheimer's Research & Therapy, 2020).

As for “Ac-DGGL^AG-NH2 [P021, 4-mer CNTF small molecule peptide mimetic to which adamantylated glycine was added at the C-terminal]”, in the data set on 3xTg-AD mice (3xTg-AD offspring, P021 diet E8-PND21, 4 training days, three-way ANOVA treatment P = 0.1088, t test 3xTg-Vh vs 3xTg-P021 P < 0.05), the “escape latency to reach the hidden platform, acquisition phase” value was “did not prevent it as determined by the three-way ANOVA but showed a clear tendency as determined by the two-tailed t test”. The “latency to first entrance into the target zone, probe trial” value in the data set on 3xTg-AD mice (3xTg-AD offspring, P021 diet E8-PND21, probe 24 h after last training, 3xTg-Vh vs 3xTg-P021 P = 0.0132) is “decreased the latency significantly”. Besides, the “swim speed and cued trial” value in the data set on 3xTg-AD mice (among WT-Vh, WT-P021, 3xTg-Vh, 3xTg-P021 groups) is reported as “no significant difference”. Further, in data set [1], the BBB permeability entry is on record as “BBB-permeable”, the solubility in water result is reported as “water-soluble” and the systemic adverse effects entry was “does not induce the systemic adverse effects associated with recombinant CNTF or BDNF”. For the same substance, the pharmacokinetic properties entry in data set [1] (oral administration) was “suitable pharmacokinetic properties for oral administration”. The “level of phosphorylation of APP at Thr668” value in the data set with APP is reported as “rescued”. Moreover, the “developmental delay and cognitive impairment at adult age” value in data set [2] is “rescues developmental delay and at adult age cognitive impairment”.
